# Results as given in ChEMBL document CHEMBL4602617, “Discovery and optimization of heteroaryl piperazines as potent and selective PI3Kδ inhibitors” (Bioorg Med Chem Lett, 2020).
# Assays:
# [1] = target: PI3-kinase p110-delta/p85-alpha (Homo sapiens, UniProt O00329); assay: Inhibition of recombinant human full-length N-terminal GST-tagged p110delta/untagged full-length p85alpha expressed in baculovirus infected Sf21 cells using PIP2 as substrate preincubated for 15 mins followed by substrate addition and measured after 1 hr by HTRF assay
# Homo sapiens [2] = species: Homo sapiens; assay: (§1) Selectivity index, ratio IC50 for inhibition of recombinant human full-length N-terminal His6-tagged p110alpha/untagged full-length p85alpha expressed in baculovirus infected Sf21 cells to ratio IC50 for inhibition of recombinant human full-length N-terminal GST-tagged p110delta/untagged full-length p85alpha expressed in baculovirus infected Sf21 cells
# Homo sapiens [3] = species: Homo sapiens; assay: as §1, with “p110beta/untagged” for “p110alpha/untagged”
# Homo sapiens [4] = species: Homo sapiens; assay: Selectivity index, ratio IC50 for inhibition of recombinant human N-terminal His6-tagged full-length p120gamma expressed in Sf21 insect cells to ratio IC50 for inhibition of recombinant human full-length N-terminal GST-tagged p110delta/untagged full-length p85alpha expressed in baculovirus infected Sf21 cells
# [5] = target: T1, Phosphatidylinositol 4,5-bisphosphate 3-kinase catalytic subunit delta isoform (Homo sapiens, UniProt O00329); assay: Inhibition of PI3K delta in human whole blood assessed as inhibition of anti-IgE-stimulated CysLt release in basophils preincubated for 30 mins followed by anti-IgE stimulation and measured after 20 mins; assay type: tissue-based
# T1 sequence (O00329 whole entry): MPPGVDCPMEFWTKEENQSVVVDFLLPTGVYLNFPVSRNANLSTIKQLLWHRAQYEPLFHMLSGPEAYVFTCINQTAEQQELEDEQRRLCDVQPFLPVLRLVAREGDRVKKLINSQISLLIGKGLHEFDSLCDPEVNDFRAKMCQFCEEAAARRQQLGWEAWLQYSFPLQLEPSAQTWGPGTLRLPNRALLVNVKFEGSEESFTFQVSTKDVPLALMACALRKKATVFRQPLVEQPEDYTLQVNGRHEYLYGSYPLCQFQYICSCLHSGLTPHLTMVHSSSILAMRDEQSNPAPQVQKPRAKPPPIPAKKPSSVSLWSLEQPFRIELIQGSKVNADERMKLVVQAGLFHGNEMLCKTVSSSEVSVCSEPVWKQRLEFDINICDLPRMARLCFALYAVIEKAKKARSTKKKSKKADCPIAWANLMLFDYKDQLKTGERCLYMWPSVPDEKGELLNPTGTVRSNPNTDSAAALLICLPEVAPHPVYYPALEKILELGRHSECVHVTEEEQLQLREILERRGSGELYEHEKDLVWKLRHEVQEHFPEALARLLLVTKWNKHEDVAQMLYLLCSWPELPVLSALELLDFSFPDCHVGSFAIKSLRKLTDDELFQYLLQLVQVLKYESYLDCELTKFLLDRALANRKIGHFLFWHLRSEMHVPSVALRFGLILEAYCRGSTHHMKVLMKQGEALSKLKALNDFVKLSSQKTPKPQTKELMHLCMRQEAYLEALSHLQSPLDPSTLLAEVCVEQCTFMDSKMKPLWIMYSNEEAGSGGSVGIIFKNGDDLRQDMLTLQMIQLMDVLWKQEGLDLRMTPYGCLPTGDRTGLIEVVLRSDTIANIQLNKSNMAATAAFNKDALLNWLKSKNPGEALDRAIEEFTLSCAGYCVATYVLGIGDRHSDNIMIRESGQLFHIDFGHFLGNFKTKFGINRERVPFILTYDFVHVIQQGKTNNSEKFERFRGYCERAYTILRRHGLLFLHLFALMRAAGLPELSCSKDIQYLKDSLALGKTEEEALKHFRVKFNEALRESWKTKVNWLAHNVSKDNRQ
# [6] = Distribution coefficient, logD of compound by HPLC analysis; assay type: physicochemical; details: octanol/water
# [7] = Clearance in rat liver microsomes; assay type: ADME, Microsome; details: read-out: CLH
# [8] = Clearance in human liver microsomes; assay type: ADME, Microsome; details: read-out: CLH
# [9] = Clearance in Wistar Han rat plasma at 0.05 mg/kg, iv administered as cassette dose; assay type: ADME, organism-based
# [10] = Unbound clearance in Wistar Han rat at 0.05 mg/kg, iv administered as cassette dose; assay type: ADME, organism-based; details: in vivo
# [11] = Volume of drug distribution in Wistar Han rat at 0.05 mg/kg, iv administered as cassette dose; assay type: ADME, organism-based; details: in vivo
# [12] = Half life in Wistar Han rat at 0.05 mg/kg, iv administered as cassette dose; assay type: ADME, organism-based; details: in vivo
# [13] = Protein binding in Wistar Han rat plasma at 0.05 mg/kg, iv administered as cassette dose; assay type: ADME, organism-based; details: read-out: PPB (converted)
# [14] = Intrinsic clearance in rat hepatocytes; assay type: ADME, cell-based, Hepatocyte; details: read-out: CLH
# [15] = Intrinsic clearance in human hepatocytes; assay type: ADME, cell-based, Hepatocyte; details: read-out: CLH
# PI3-kinase p110-delta/p85-alpha, sequence (P27986 whole entry, one chain of several): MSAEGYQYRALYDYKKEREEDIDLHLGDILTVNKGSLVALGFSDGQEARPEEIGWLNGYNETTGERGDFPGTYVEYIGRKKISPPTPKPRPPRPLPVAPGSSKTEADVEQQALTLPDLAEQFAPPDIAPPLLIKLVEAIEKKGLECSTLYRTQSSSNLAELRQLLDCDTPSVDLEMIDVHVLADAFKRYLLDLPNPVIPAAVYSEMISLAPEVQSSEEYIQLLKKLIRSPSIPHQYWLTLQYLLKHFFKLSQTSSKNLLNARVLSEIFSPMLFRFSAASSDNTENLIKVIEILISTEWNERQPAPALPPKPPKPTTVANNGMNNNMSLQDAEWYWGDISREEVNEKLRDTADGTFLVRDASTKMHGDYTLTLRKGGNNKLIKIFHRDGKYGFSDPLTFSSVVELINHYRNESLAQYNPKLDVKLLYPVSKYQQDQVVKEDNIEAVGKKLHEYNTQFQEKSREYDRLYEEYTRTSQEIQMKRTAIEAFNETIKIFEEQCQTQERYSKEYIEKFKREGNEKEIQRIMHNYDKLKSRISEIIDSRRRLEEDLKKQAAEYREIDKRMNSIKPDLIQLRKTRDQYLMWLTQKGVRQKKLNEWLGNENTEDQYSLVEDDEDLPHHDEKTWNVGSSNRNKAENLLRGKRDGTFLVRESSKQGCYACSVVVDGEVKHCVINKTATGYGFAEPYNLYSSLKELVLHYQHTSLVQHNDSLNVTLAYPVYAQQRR
smiles,measurement,setting,value
C[C@@H]1C[C@H]1C(=O)N1CCN(c2nc(-c3cnn(C)c3)ncc2C#N)C[C@H]1C,IC50,[1],32 nM
same,Ratio IC50,Homo sapiens [2],> 394
same,Ratio IC50,Homo sapiens [3],> 394
same,Ratio IC50,Homo sapiens [4],> 394
same,IC50,[5],187 nM
same,logD,[6],1.9
same,CLint scaled,[7],54 mL/min/kg
same,CLint scaled,[8],< 16 mL/min/kg
C[C@@H]1CN(c2nc(-c3cnn(C)c3)ncc2C#N)CCN1C(=O)C1(C)CC1,IC50,[1],1050 nM
same,Ratio IC50,Homo sapiens [2],> 12
same,Ratio IC50,Homo sapiens [3],> 12
same,Ratio IC50,Homo sapiens [4],> 12
same,IC50,[5],5710 nM
same,logD,[6],1.7
same,CLint scaled,[7],< 36 mL/min/kg
same,CLint scaled,[8],< 16 mL/min/kg
N#Cc1cnc(-c2cccnc2)nc1N1C[C@@H]2C[C@H]1CN2c1cccc(Cl)c1,IC50,[1],474 nM
same,Ratio IC50,Homo sapiens [2],62
same,Ratio IC50,Homo sapiens [3],14
same,Ratio IC50,Homo sapiens [4],> 105
same,logD,[6],3.82
Cn1cc(-c2ncc(C#N)c(N3CCN(c4cccc(F)c4)CC3)n2)cn1,IC50,[1],1600 nM
same,Ratio IC50,Homo sapiens [2],> 8
same,Ratio IC50,Homo sapiens [3],> 8
same,Ratio IC50,Homo sapiens [4],> 8
same,logD,[6],3.2
C[C@@H]1CN(c2ncc(C#N)c(-c3cnn(C)c3)n2)CCN1C(=O)C1CC1,IC50,[1],21 nM
same,Ratio IC50,Homo sapiens [2],> 583
same,Ratio IC50,Homo sapiens [3],> 583
same,Ratio IC50,Homo sapiens [4],764
same,IC50,[5],764 nM
same,logD,[6],2
same,CLint scaled,[7],39 mL/min/kg
same,CLint scaled,[8],< 16 mL/min/kg
CC1CC1C(=O)N1CCN(c2nc(-c3cnn(C)c3)ncc2C#N)C[C@H]1C (mixture of isomers),IC50,[1],79 nM
same,Ratio IC50,Homo sapiens [2],> 159
same,Ratio IC50,Homo sapiens [3],> 159
same,Ratio IC50,Homo sapiens [4],159
same,IC50,[5],557 nM
same,logD,[6],2
same,CLint scaled,[7],< 36 mL/min/kg
same,CLint scaled,[8],< 16 mL/min/kg
Cn1cc(-c2ncc(C#N)c(N3CCN(c4cccc(F)c4)C(C)(C)C3)n2)cn1,IC50,[1],1520 nM
same,Ratio IC50,Homo sapiens [2],> 8
same,Ratio IC50,Homo sapiens [3],> 8
same,Ratio IC50,Homo sapiens [4],> 8
same,logD,[6],3.6
same,CLint scaled,[7],2050 mL/min/kg
same,CLint scaled,[8],91 mL/min/kg
CCC(=O)N1CCN(c2nc(-c3cnn(C)c3)ncc2C#N)C[C@H]1C,IC50,[1],263 nM
same,Ratio IC50,Homo sapiens [2],> 48
same,Ratio IC50,Homo sapiens [3],> 48
same,Ratio IC50,Homo sapiens [4],> 48
same,IC50,[5],2320 nM
same,logD,[6],1.4
same,CLint scaled,[7],< 36 mL/min/kg
same,CLint scaled,[8],< 16 mL/min/kg
Cn1cc(-c2ncc(C#N)c(N3C[C@@H]4C[C@H]3CN4S(=O)(=O)C3CC3)n2)cn1,IC50,[1],1190 nM
same,Ratio IC50,Homo sapiens [2],> 10
same,Ratio IC50,Homo sapiens [3],10
same,Ratio IC50,Homo sapiens [4],10
same,IC50,[5],4120 nM
same,logD,[6],1.6
same,CLint scaled,[7],< 36 mL/min/kg
same,CLint scaled,[8],< 16 mL/min/kg
Cn1cc(-c2ncc(C#N)c(N3CC4CCC(C3)N4c3cccc(F)c3)n2)cn1,IC50,[1],1030 nM
same,Ratio IC50,Homo sapiens [2],> 12
same,Ratio IC50,Homo sapiens [3],> 12
same,Ratio IC50,Homo sapiens [4],> 12
same,logD,[6],3.3
same,CLint scaled,[7],529 mL/min/kg
same,CLint scaled,[8],62 mL/min/kg
C[C@@H]1CN(c2nc(-c3cnn(C)c3)ncc2C#N)CCN1c1cccc(F)c1,IC50,[1],165 nM
same,Ratio IC50,Homo sapiens [2],> 76
same,Ratio IC50,Homo sapiens [3],> 76
same,Ratio IC50,Homo sapiens [4],> 76
same,logD,[6],3.3
N#Cc1cnc(N2Cc3cn[nH]c3C2)nc1N1C[C@@H]2C[C@H]1CN2c1cccc(F)c1,IC50,[1],86 nM
same,Ratio IC50,Homo sapiens [2],> 146
same,Ratio IC50,Homo sapiens [3],> 146
same,Ratio IC50,Homo sapiens [4],> 146
same,logD,[6],2.9
Cn1cc(-c2ncc(C#N)c(N3C[C@@H]4C[C@H]3CN4c3cccc(F)c3)n2)cn1,IC50,[1],31 nM
same,Ratio IC50,Homo sapiens [2],160
same,Ratio IC50,Homo sapiens [3],308
same,Ratio IC50,Homo sapiens [4],> 407
same,IC50,[5],2960 nM
same,logD,[6],3.1
same,CLint scaled,[7],1080 mL/min/kg
same,CLint scaled,[8],76 mL/min/kg
same,clearance,[9],68 mL/min/kg
same,CL free,[10],4857 mL/min/kg
same,Vd,[11],4.7 L/kg
same,half-life,[12],66 min
same,fraction unbound,[13],0.014
C[C@@H]1CN(c2nc(-c3cnn(C)c3)ncc2C#N)CCN1C(=O)C1CC1,IC50,[1],108 nM
same,Ratio IC50,Homo sapiens [2],> 116
same,Ratio IC50,Homo sapiens [3],> 116
same,Ratio IC50,Homo sapiens [4],> 116
same,IC50,[5],329 nM
same,logD,[6],1.5
same,CLint scaled,[7],< 36 mL/min/kg
same,CLint scaled,[8],21 mL/min/kg
N#Cc1cnc(-c2ccccc2)nc1N1C[C@@H]2C[C@H]1CN2c1cccc(F)c1,IC50,[1],> 10000 nM
same,logD,[6],4.5
Cn1cc(-c2ncc(C#N)c(N3C[C@@H]4C[C@H]3CN4CC3CC3)n2)cn1,IC50,[1],1430 nM
same,IC50,[5],6970 nM
same,logD,[6],1.5
same,CLint scaled,[7],158 mL/min/kg
same,CLint scaled,[8],< 16 mL/min/kg
C[C@@H]1CN(c2nc(-c3cnn(C)c3)ncc2C#N)CCN1C(=O)C1CCC1,IC50,[1],374 nM
same,Ratio IC50,Homo sapiens [2],> 33
same,Ratio IC50,Homo sapiens [3],> 33
same,Ratio IC50,Homo sapiens [4],> 33
same,IC50,[5],1560 nM
same,logD,[6],2
same,CLint scaled,[7],< 36 mL/min/kg
same,CLint scaled,[8],< 16 mL/min/kg
Cn1cc(-c2ncc(C#N)c(N3C[C@@H]4C[C@H]3CN4C(=O)C3CC3)n2)cn1,IC50,[1],161 nM
same,Ratio IC50,Homo sapiens [2],> 78
same,Ratio IC50,Homo sapiens [3],78
same,Ratio IC50,Homo sapiens [4],78
same,IC50,[5],258 nM
same,logD,[6],1.1
same,CLint scaled,[7],< 36 mL/min/kg
same,CLint scaled,[8],< 16 mL/min/kg
same,clearance,[9],46 mL/min/kg
same,CL free,[10],85 mL/min/kg
same,Vd,[11],0.9 L/kg
same,half-life,[12],12 min
same,fraction unbound,[13],0.54
CCNC(=O)N1C[C@@H]2C[C@H]1CN2c1nc(-c2cnn(C)c2)ncc1C#N,IC50,[1],2190 nM
same,Ratio IC50,Homo sapiens [2],> 6
same,Ratio IC50,Homo sapiens [3],6
same,Ratio IC50,Homo sapiens [4],6
same,logD,[6],0.8
C[C@@H]1CN(c2cnc(C#N)c(-c3cnn(C)c3)n2)CCN1C(=O)C1CC1,IC50,[1],33 nM
same,Ratio IC50,Homo sapiens [2],> 384
same,Ratio IC50,Homo sapiens [3],> 384
same,Ratio IC50,Homo sapiens [4],> 384
same,IC50,[5],219 nM
same,logD,[6],1.8
same,CLint scaled,[7],< 36 mL/min/kg
same,CLint scaled,[8],< 16 mL/min/kg
C[C@@H]1CN(c2nc(-c3cnn(C)c3)cnc2C#N)CCN1C(=O)C1CC1,IC50,[1],185 nM
same,Ratio IC50,Homo sapiens [2],> 67
same,Ratio IC50,Homo sapiens [3],> 67
same,Ratio IC50,Homo sapiens [4],> 67
same,IC50,[5],737 nM
same,logD,[6],1.9
same,CLint scaled,[7],39 mL/min/kg
same,CLint scaled,[8],50 mL/min/kg
N#Cc1cnc(-c2ccnc3[nH]ccc23)nc1N1C[C@@H]2C[C@H]1CN2c1cccc(F)c1,IC50,[1],56 nM
same,Ratio IC50,Homo sapiens [2],76
same,Ratio IC50,Homo sapiens [3],93
same,Ratio IC50,Homo sapiens [4],225
same,logD,[6],3.4
N#Cc1cnc(-c2cccnc2)nc1N1C[C@@H]2C[C@H]1CN2c1cccc(F)c1,IC50,[1],364 nM
same,Ratio IC50,Homo sapiens [2],> 27
same,Ratio IC50,Homo sapiens [3],> 27
same,Ratio IC50,Homo sapiens [4],> 27
same,logD,[6],3.43
same,clearance,[9],90 mL/min/kg
same,Vd,[11],3.6 L/kg
same,half-life,[12],36 min
same,CLint scaled,[14],234 mL/min/kg
same,CLint scaled,[15],69 mL/min/kg
N#Cc1cnc(-c2cnc3[nH]ccc3c2)nc1N1C[C@@H]2C[C@H]1CN2c1cccc(F)c1,IC50,[1],918 nM
same,Ratio IC50,Homo sapiens [2],8
same,Ratio IC50,Homo sapiens [3],> 14
same,Ratio IC50,Homo sapiens [4],> 14
